# Laboratory results published in ChEMBL document CHEMBL3997855, “Discovery of Fevipiprant (NVP-QAW039), a Potent and Selective DP2 Receptor Antagonist for Treatment of Asthma” (ACS Med Chem Lett, 2017).
# What was measured:
# [1] = target: T1, Prostaglandin D2 receptor 2 (Homo sapiens, UniProt Q9Y5Y4); assay: Antagonist activity at DP2 receptor in human isolated eosinophils assessed as inhibition of DK-PGD2-induced shape change preincubated for 5 mins followed by DK-PGD2 addition measured after 5 mins by flow cytometry
# T1 sequence (Q9Y5Y4 whole entry): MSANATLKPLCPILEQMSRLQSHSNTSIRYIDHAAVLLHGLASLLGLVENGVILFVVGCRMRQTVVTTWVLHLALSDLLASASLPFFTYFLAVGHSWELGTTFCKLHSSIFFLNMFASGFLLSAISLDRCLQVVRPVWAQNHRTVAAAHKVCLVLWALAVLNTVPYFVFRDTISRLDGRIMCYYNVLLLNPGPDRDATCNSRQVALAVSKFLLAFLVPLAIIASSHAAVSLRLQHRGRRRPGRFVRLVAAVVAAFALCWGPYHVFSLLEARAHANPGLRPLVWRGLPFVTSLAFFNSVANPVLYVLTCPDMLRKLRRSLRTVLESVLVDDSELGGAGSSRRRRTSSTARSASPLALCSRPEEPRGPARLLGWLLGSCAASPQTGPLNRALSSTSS
# [2] = target: T1, Prostaglandin D2 receptor 2; assay: Displacement of [3H]PGD2 from human DP2 receptor expressed in CHO cell membranes after 60 mins by scintillation proximity assay
# [3] = target: Prostaglandin E2 receptor EP4 subtype (Homo sapiens, UniProt P35408); assay: Antagonist activity at EP4 receptor (unknown origin)
# Prostaglandin E2 receptor EP4 subtype, sequence (P35408 whole entry): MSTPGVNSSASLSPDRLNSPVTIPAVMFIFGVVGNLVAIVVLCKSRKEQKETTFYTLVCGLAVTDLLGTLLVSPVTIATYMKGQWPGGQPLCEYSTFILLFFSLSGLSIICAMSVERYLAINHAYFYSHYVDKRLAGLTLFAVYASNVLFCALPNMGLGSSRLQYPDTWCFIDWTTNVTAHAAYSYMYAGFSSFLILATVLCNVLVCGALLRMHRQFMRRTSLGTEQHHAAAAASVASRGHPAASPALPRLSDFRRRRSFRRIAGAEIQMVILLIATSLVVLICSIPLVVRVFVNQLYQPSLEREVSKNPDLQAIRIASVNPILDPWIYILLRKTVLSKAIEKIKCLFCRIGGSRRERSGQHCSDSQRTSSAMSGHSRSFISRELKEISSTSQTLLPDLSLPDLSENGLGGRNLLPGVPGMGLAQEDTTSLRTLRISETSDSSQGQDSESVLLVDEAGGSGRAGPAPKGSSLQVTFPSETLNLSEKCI
# Cytochrome P450 2D6 = Cytochrome P450 2D6 (Homo sapiens, UniProt P10635); assay: Inhibition of human CYP2D6; assay type: ADME
# Cytochrome P450 2D6, sequence (P10635 whole entry): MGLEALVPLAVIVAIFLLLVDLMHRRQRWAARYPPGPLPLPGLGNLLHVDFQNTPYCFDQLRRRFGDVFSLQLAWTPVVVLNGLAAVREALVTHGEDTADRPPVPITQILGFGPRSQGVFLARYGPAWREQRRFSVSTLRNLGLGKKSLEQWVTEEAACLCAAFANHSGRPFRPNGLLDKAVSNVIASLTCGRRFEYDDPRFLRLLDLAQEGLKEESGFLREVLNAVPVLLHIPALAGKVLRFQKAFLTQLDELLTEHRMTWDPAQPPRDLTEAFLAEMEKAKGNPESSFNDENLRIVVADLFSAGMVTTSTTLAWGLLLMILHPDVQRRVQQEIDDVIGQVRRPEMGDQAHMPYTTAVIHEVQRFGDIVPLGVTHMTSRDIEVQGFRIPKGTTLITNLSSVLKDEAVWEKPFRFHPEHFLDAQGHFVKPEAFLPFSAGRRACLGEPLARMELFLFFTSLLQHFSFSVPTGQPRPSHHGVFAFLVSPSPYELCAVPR
# [4] = Clearance in Wistar rat at 0.5 mg/kg, iv or 3 mg/kg, po by LC-MS/MS analysis; assay type: ADME, organism-based; conditions: in vivo
# [5] = Fraction unbound in plasma of Sprague-Dawley rat DK-PGD2-induced pulmonary eosinophilia mechanistic model at 0.03 to 0.1 mg/kg, po by equilibrium dialysis method; assay type: ADME, organism-based
# [6] = target: Prostaglandin E2 receptor EP2 subtype (Homo sapiens, UniProt P43116); assay: Antagonist activity at EP2 receptor (unknown origin)
# Prostaglandin E2 receptor EP2 subtype, sequence (P43116 whole entry): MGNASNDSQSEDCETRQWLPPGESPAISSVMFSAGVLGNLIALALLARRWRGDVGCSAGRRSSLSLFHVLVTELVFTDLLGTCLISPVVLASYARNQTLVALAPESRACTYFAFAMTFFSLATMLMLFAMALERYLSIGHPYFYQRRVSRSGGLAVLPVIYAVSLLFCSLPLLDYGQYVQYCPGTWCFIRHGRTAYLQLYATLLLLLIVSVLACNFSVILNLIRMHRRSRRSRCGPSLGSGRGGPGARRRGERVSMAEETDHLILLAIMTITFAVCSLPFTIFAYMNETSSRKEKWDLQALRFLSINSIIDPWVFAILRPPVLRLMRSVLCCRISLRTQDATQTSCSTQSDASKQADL
# [7] = Volume of distribution at steady state in Wistar rat at 0.5 mg/kg, iv or 3 mg/kg, po by LC-MS/MS analysis; assay type: ADME, organism-based; conditions: in vivo, read-out: Vdss
# Rattus norvegicus [8] = assay: In vivo antagonist activity at DP2 receptor in Sprague-Dawley rat DK-PGD2-induced pulmonary eosinophilia mechanistic model assessed inhibition of eosinophilia in broncho alveolar lavage fluid at 0.03 to 0.1 mg/kg, po pretreated for 40 mins starting at 2 hrs post IL-5 administration followed by DK-PGD2 administration measured after 2 hrs; assay type: functional, organism-based
# Prostacyclin receptor [9] = target: T2, Prostacyclin receptor (Homo sapiens, UniProt P43119); assay: Agonist activity at IP receptor (unknown origin)
# T2 sequence (P43119 whole entry): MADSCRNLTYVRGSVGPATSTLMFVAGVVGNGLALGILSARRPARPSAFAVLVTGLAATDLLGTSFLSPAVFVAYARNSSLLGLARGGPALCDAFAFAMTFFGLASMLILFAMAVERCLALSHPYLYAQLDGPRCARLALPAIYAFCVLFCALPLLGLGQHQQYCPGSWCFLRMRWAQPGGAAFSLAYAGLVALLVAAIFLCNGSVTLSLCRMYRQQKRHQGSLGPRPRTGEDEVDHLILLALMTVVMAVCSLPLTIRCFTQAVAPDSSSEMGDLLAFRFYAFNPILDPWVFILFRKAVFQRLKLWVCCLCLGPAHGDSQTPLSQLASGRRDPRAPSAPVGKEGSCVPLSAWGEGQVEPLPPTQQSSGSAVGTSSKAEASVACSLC
# [10] = target: T1, Prostaglandin D2 receptor 2; assay: Antagonist activity at DP2 receptor in CD4-positive human TH2 cells assessed as inhibition of DK-PGD2-induced IL-13 production after 6 to 8 hrs
# [11] = target: T3, Prostaglandin E2 receptor EP3 subtype (Homo sapiens, UniProt P43115); assay: Antagonist activity at EP3 receptor (unknown origin)
# T3 sequence (P43115 whole entry): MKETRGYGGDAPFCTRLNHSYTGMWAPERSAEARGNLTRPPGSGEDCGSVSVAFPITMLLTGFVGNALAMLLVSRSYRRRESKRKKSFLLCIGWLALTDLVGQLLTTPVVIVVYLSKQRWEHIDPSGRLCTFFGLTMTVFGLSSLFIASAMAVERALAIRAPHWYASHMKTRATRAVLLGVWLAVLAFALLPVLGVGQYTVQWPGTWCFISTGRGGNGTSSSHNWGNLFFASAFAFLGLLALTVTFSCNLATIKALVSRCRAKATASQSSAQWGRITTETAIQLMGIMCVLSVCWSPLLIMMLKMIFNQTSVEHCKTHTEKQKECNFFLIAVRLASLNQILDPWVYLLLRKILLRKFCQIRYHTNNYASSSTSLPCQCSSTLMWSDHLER
# [12] = target: T1, Prostaglandin D2 receptor 2; assay: Antagonist activity at DP2 receptor in CD4-positive human TH2 cells assessed as inhibition of DK-PGD2-induced IL-5 production after 6 to 8 hrs
# [13] = target: T4, Nuclear receptor subfamily 1 group I member 2 (Homo sapiens, UniProt O75469); assay: Activation of PXR (unknown origin) assessed as CYP3A4 induction; assay type: ADME
# T4 sequence (O75469 whole entry): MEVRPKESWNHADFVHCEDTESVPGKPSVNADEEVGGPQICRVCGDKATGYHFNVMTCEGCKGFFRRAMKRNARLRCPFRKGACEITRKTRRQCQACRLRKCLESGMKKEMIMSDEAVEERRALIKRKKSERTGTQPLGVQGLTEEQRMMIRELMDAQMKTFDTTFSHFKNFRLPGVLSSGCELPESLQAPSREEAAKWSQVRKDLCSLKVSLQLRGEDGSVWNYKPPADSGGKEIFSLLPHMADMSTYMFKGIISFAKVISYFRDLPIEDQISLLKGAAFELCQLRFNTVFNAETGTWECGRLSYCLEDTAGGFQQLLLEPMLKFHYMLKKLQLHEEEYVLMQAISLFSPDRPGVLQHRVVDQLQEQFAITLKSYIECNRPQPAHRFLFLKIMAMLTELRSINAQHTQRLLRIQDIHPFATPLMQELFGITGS
# Cytochrome P450 3A4 = Cytochrome P450 3A4 (Homo sapiens, UniProt P08684); assay: Inhibition of human CYP3A4; assay type: ADME
# Cytochrome P450 3A4, sequence (P08684 whole entry): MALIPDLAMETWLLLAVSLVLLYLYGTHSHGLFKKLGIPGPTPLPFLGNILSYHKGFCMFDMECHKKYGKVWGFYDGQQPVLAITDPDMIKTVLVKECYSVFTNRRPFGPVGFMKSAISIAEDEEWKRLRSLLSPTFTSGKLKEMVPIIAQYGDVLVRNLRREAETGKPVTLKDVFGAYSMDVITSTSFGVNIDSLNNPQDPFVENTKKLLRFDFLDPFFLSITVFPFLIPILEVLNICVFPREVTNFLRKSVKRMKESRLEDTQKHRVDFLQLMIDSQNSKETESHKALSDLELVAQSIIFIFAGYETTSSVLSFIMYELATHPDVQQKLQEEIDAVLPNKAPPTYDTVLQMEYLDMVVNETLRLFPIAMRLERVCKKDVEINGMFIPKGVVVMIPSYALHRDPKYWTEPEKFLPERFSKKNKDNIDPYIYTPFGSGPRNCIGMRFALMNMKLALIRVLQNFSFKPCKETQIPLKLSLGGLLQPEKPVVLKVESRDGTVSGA
# [14] = target: T3, Prostaglandin E2 receptor EP3 subtype; assay: Agonist activity at EP3 receptor (unknown origin)
# [15] = Half life in Wistar rat at 0.5 mg/kg, iv by LC-MS/MS analysis; assay type: ADME, organism-based; conditions: in vivo
# [16] = Oral bioavailability in Wistar rat at 3 mg/kg by LC-MS/MS analysis; assay type: ADME, organism-based; conditions: in vivo
# [17] = target: T5, Prostaglandin D2 receptor 2 (Homo sapiens) (UniProt Q9Y5Y4)
# T5 sequence (whole entry): T1 sequence (Q9Y5Y4 whole entry)
# Description: Displacement of [3H]NVP-QAW039 from human DP2 receptor expressed in CHO cell membranes assessed as dissociation half life by TopCount scintillation assay
# Canis familiaris = species on record: Canis familiaris; assay: Toxicity in dog; parameters: species or system Canis lupus familiaris; conditions: in vivo
# [18] = target: Prostaglandin F2-alpha receptor (Homo sapiens, UniProt P43088); assay: Antagonist activity at FP receptor (unknown origin)
# Prostaglandin F2-alpha receptor, sequence (P43088 whole entry): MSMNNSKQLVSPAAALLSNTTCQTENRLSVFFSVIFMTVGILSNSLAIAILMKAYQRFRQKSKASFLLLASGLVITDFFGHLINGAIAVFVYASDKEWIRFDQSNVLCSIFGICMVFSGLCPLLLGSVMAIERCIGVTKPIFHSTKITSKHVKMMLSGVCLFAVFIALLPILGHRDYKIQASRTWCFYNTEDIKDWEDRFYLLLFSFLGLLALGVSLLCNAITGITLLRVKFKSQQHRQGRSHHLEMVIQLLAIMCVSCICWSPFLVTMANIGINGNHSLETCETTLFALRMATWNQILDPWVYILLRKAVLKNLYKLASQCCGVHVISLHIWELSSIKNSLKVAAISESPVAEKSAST
# Cytochrome P450 1A2 = target: T6, Cytochrome P450 1A2 (Homo sapiens, UniProt P05177); assay: Inhibition of human CYP1A2; assay type: ADME
# T6 sequence (P05177 whole entry): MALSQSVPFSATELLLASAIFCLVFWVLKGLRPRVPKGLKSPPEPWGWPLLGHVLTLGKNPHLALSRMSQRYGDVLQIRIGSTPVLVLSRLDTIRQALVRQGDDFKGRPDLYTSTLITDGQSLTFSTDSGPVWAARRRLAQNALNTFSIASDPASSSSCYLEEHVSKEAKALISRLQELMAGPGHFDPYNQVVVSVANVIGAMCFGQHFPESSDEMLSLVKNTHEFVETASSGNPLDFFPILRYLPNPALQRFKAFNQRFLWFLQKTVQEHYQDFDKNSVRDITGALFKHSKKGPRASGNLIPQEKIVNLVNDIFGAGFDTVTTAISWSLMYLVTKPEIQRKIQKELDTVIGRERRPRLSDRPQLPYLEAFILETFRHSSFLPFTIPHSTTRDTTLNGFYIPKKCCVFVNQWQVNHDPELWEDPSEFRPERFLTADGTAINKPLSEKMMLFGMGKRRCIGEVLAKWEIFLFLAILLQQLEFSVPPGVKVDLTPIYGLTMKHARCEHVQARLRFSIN
# Prostacyclin receptor [19] = target: T2, Prostacyclin receptor; assay: Antagonist activity at IP receptor (unknown origin)
# [20] = target: T1, Prostaglandin D2 receptor 2; assay: Displacement of [3H]NVP-QAW039 from human DP2 receptor expressed in CHO cell membranes by TopCount scintillation assay
# Rattus norvegicus [21] = species on record: Rattus norvegicus; assay: Toxicity in rat; conditions: in vivo
# [22] = target: T7, Prostaglandin D2 receptor (Homo sapiens, UniProt Q13258); assay: Antagonist activity at DP1 receptor (unknown origin)
# T7 sequence (Q13258 whole entry): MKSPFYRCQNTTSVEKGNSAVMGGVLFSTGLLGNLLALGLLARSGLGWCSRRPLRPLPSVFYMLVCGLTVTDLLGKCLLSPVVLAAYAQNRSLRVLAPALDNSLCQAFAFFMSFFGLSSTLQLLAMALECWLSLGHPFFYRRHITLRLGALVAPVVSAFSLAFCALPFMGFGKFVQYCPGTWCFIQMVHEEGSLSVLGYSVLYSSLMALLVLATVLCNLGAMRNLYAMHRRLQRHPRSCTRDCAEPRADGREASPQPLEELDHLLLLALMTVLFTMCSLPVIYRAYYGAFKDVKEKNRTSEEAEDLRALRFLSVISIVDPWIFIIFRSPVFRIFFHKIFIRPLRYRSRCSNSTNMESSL
# [23] = target: T1, Prostaglandin D2 receptor 2; assay: Antagonist activity at DP2 receptor in CD4-positive human TH2 cells assessed as inhibition of PGD2-induced IL-4 production preincubated for 30 mins followed by PGD2 addition measured after 6 hrs
# Cytochrome P450 2C9 = Cytochrome P450 2C9 (Homo sapiens, UniProt P11712); assay: Inhibition of human CYP2C9; assay type: ADME
# Cytochrome P450 2C9, sequence (P11712 whole entry): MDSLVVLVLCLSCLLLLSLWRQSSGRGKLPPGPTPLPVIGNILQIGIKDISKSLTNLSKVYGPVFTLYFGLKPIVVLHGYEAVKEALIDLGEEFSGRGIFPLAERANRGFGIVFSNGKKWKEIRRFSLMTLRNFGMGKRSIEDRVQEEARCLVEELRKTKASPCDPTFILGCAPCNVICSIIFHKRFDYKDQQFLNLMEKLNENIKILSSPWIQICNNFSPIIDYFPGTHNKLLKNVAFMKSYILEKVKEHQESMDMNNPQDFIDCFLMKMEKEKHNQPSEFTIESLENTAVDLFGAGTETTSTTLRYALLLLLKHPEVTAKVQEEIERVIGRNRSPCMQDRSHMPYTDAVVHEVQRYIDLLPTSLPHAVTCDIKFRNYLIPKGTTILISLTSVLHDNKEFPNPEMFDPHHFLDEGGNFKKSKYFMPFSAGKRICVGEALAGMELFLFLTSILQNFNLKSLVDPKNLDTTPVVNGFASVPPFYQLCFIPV
# Thromboxane A2 receptor = target: T8, Thromboxane A2 receptor (Homo sapiens, UniProt P21731); assay: Antagonist activity at TP receptor (unknown origin)
# T8 sequence (P21731 whole entry): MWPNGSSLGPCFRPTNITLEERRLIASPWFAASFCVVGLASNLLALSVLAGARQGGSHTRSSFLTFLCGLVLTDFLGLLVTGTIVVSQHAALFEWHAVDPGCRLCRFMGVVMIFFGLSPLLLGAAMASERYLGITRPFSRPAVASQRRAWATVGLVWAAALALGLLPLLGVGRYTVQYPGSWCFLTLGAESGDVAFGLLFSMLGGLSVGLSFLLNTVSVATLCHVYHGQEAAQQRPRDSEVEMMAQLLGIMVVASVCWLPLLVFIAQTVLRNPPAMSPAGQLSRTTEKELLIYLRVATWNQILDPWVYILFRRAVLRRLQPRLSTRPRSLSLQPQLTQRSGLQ
# [24] = Antagonist activity at DP2 receptor in human whole assessed as inhibition of DK-PGD2-induced eosinophils shape change preincubated for 5 mins followed by DK-PGD2 addition measured after 5 mins by flow cytometry
# Rattus norvegicus [25] = assay: In vivo antagonist activity at DP2 receptor in Sprague-Dawley rat DK-PGD2-induced pulmonary eosinophilia mechanistic model assessed inhibition of eosinophilia in broncho alveolar lavage fluid at 0.1 to 0.3 mg/kg, po pretreated for 40 mins starting at 2 hrs post IL-5 administration followed by DK-PGD2 administration measured after 2 hrs; assay type: functional, organism-based
compound,measurement,setting,value
CCc1ccc2c(CC(=O)O)c(C)n(Cc3ccc(S(C)(=O)=O)cc3)c2n1,IC50,[1],6 nM
same,Ki,[2],47 nM
Cc1cc(S(C)(=O)=O)ccc1Cn1c(C)c(CC(=O)O)c2cccnc21,IC50,[1],4 nM
CCS(=O)(=O)c1ccc(Cn2c(C)c(CC(=O)O)c3cccnc32)cc1,IC50,[1],4 nM
same,Ki,[2],50 nM
Cc1c(CC(=O)O)c2cccnc2n1Cc1ccc(S(C)(=O)=O)cc1C(F)(F)F [FEVIPIPRANT],IC50,[1],0.4 nM
same,IC50,[3],> 10000 nM
same,IC50,Cytochrome P450 2D6,> 100000 nM
same,clearance,[4],1.6 mL/min/kg
same,fraction unbound,[5],0.08
same,IC50,[6],> 10000 nM
same,Vd,[7],1.1 L/kg
same,IC50,Rattus norvegicus [8],6.5 nM
same,EC50,Prostacyclin receptor [9],> 10000 nM
same,IC50,[10],1.4 nM
same,IC50,[11],> 10000 nM
same,IC50,[12],2.6 nM
same,Activity,[13],Not Active
same,IC50,Cytochrome P450 3A4,> 100000 nM
same,EC50,[14],> 10000 nM
same,half-life,[15],792 min
same,bioavailability,[16],43%
same,T1/2,[17],12 min
same,Activity,Canis familiaris,Non-Toxic
same,IC50,[18],> 10000 nM
same,IC50,Cytochrome P450 1A2,> 100000 nM
same,IC50,Prostacyclin receptor [19],> 10000 nM
same,Kd,[20],1.02 nM
same,Activity,Rattus norvegicus [21],Non-Toxic
same,IC50,[22],> 10000 nM
same,IC50,[23],3.1 nM
same,IC50,Cytochrome P450 2C9,> 100000 nM
same,IC50,Thromboxane A2 receptor,> 10000 nM
Cc1c(CC(=O)O)c2cccnc2n1Cc1ccc(S(C)(=O)=O)cc1 [QAV680],IC50,[1],5 nM
same,IC50,[10],25 nM
same,IC50,[24],31 nM
same,IC50,[12],59 nM
same,IC50,Rattus norvegicus [25],40 nM
same,T1/2,[17],1.29 min
same,Kd,[20],15.1 nM
Cc1c(CC(=O)O)c2ccccc2n1Cc1ccc(S(C)(=O)=O)cc1,IC50,[1],20 nM
same,Ki,[2],19 nM
same,T1/2,[17],0.18 min
same,Kd,[20],25.1 nM
Cc1cnc2c(c1)c(CC(=O)O)c(C)n2Cc1ccc(S(C)(=O)=O)cc1,Ki,[2],1340 nM
Cc1c(CC(=O)O)c2cccnc2n1Cc1ccc(S(C)(=O)=O)c(C(F)(F)F)c1,IC50,[1],4 nM
same,Ki,[2],31 nM
